Results published in patent publication US20220211594A1, “TOPICAL COMPOSITIONS” (DSM IP ASSETS B.V., priority 2019, published 2022).

Key:
[1] = system: Bacterial cocktail (E. Coli, P. aeruginosa, S. aureus); assay: Preservation challenge test of inoculated O/W emulsion (ISO 11930), bacterial cocktail; assay type: cell-based; settings: PTT: 0.3 wt -%, HG & EHG: 0.4 wt.-%
Protocol: (§1) The evaluation of the preservation of a cosmetic formulation is based on inoculation of the formulation as outlined in table 1 with calibrated inocula (prepared from relevant strains of micro-organisms). Therefore, to each formulation 0.2 ml of calibrated inoculum is added to obtain between 1×10^4 cfu/ml and 1×10^7 cfu/ml or g for bacteria, and between 1×10^2 cfu/ml and 1×10^6 cfu/ml or g for C. albicans and A. brasiliensis in the formulation (final concentration), which is mixed thoroughly into the formulation to ensure a homogeneous distribution of the inoculum. Then the respective containers containing the inoculated formulations are stored @ 22.5±2.5° C. At each specified sampling interval (initial (T0), 7 days (T7) and 28 days (T28)) 1 g of the inoculated formulation is taken and a dilution prepared to perform the enumeration of surviving micro-organisms. Then, for each time and each strain/strain mixture, the average log value is calculated which is represented in tables 2-6. (Procedure: see ISO 11930, chapter 5.2.-5.6.3.4. (page 3-13))

[2] = system: A. brasiliensis; assay: Preservation challenge test of inoculated O/W emulsion (ISO 11930), A. brasiliensis; assay type: cell-based, Aspergillus brasiliensis
Protocol: as §1

[3] = system: C. albicans; assay: Preservation challenge test of inoculated O/W emulsion (ISO 11930), C. albicans; assay type: cell-based, Candida albicans; settings: PTT: 0.4 wt.-%, HG & EHG: 0.6 wt.-%
Protocol: as §1

[4] = PTT: 0.1 wt.-%, HG & EHG: 0.9 wt.-%, time 0 days
[5] = PTT: 0.1 wt.-%, HG & EHG: 0.9 wt.-%, time 7 days
[6] = PTT: 0.1 wt.-%, HG & EHG: 0.9 wt.-%, time 28 days
[7] = PTT: 0.3 wt.-%, HG & EHG: 0.4 wt.-%, time 0 days
[8] = PTT: 0.3 wt.-%, HG & EHG: 0.4 wt.-%, time 7 days
[9] = PTT: 0.3 wt.-%, HG & EHG: 0.4 wt.-%, time 28 days
[10] = PTT: 0.4 wt.-%, HG & EHG: 0.6 wt.-%, time 0 days
[11] = PTT: 0.4 wt.-%, HG & EHG: 0.6 wt.-%, time 7 days
[12] = PTT: 0.4 wt.-%, HG & EHG: 0.6 wt.-%, time 28 days

CCCCC(CC)COCC(O)CO (stereo not drawn) [EHG, Ethylhexyl glycerine]
Average log [cfu/ml] ([1]; time 0 days): 5.3 log [cfu/ml] | Average log [cfu/ml] ([1]; time 7 days): 7.0 log [cfu/ml] | Average log [cfu/ml] ([1]; time 28 days): 6.5 log [cfu/ml] | Average log [cfu/ml] [2, 4]: 4.6 log [cfu/ml] | Average log [cfu/ml] [2, 5]: 4.2 log [cfu/ml] | Average log [cfu/ml] [2, 6]: 4.5 log [cfu/ml] | Average log [cfu/ml] [2, 7]: 4.6 log [cfu/ml] | Average log [cfu/ml] [2, 8]: 4.6 log [cfu/ml] | Average log [cfu/ml] [2, 9]: 4.6 log [cfu/ml] | Average log [cfu/ml] [2, 10]: 4.6 log [cfu/ml] | Average log [cfu/ml] [2, 11]: 4.4 log [cfu/ml] | Average log [cfu/ml] [2, 12]: 4.6 log [cfu/ml] | Average log [cfu/ml] ([3]; time 0 days): 3.2 log [cfu/ml] | Average log [cfu/ml] ([3]; time 7 days): 6.1 log [cfu/ml] | Average log [cfu/ml] ([3]; time 28 days): 6.0 log [cfu/ml]

CCCCCCOCC(O)CO (stereo not drawn) [HG, 3-(hexyloxy)-1,2-propanediol]
Average log [cfu/ml] ([1]; time 0 days): 4.9 log [cfu/ml] | Average log [cfu/ml] ([1]; time 7 days): 5.7 log [cfu/ml] | Average log [cfu/ml] ([1]; time 28 days): 5.6 log [cfu/ml] | Average log [cfu/ml] [2, 4]: 4.2 log [cfu/ml] | Average log [cfu/ml] [2, 5]: 1.3 log [cfu/ml] | Average log [cfu/ml] [2, 6]: 0 log [cfu/ml] | Average log [cfu/ml] [2, 7]: 4.7 log [cfu/ml] | Average log [cfu/ml] [2, 8]: 3.7 log [cfu/ml] | Average log [cfu/ml] [2, 9]: 3.5 log [cfu/ml] | Average log [cfu/ml] [2, 10]: 4.3 log [cfu/ml] | Average log [cfu/ml] [2, 11]: 3.6 log [cfu/ml] | Average log [cfu/ml] [2, 12]: 3.1 log [cfu/ml] | Average log [cfu/ml] ([3]; time 0 days): 4.3 log [cfu/ml] | Average log [cfu/ml] ([3]; time 7 days): 3.6 log [cfu/ml] | Average log [cfu/ml] ([3]; time 28 days): 3.1 log [cfu/ml]

CC(C)CCCC(C)CCCC(C)CCCC(C)(O)C(O)CO (stereo not drawn) [PTT, 3,7,11,15-tetramethyl-hexadecane-1,2,3-triol]
Average log [cfu/ml] ([1]; time 0 days): 6.5 log [cfu/ml] | Average log [cfu/ml] ([1]; time 7 days): 2 log [cfu/ml] | Average log [cfu/ml] ([1]; time 28 days): 2 log [cfu/ml] | Average log [cfu/ml] [2, 4]: 2.1 log [cfu/ml] | Average log [cfu/ml] [2, 5]: 3.6 log [cfu/ml] | Average log [cfu/ml] [2, 6]: 4.4 log [cfu/ml] | Average log [cfu/ml] [2, 7]: 6.3 log [cfu/ml] | Average log [cfu/ml] [2, 8]: 5.7 log [cfu/ml] | Average log [cfu/ml] [2, 9]: 5.8 log [cfu/ml] | Average log [cfu/ml] [2, 10]: 1.7 log [cfu/ml] | Average log [cfu/ml] [2, 11]: 3.5 log [cfu/ml] | Average log [cfu/ml] [2, 12]: 4.5 log [cfu/ml] | Average log [cfu/ml] ([3]; time 0 days): 3.0 log [cfu/ml] | Average log [cfu/ml] ([3]; time 7 days): 6.8 log [cfu/ml] | Average log [cfu/ml] ([3]; time 28 days): 7.1 log [cfu/ml]
